Laboratory results as given in patent publication US20100286219A1, “1, 3-Dihydroimidazoles for Treating Cardiovascular Disorders” (BIAL - PORTELA & CA S.A., priority 2007, published 2010).

Tests used:
human DβH = molecular target: T1, human DβH (Homo sapiens, UniProt P09172); test: DβH activity in SK-N-SH cells (β-hydroxylation of dopamine to noradrenaline); format: cell-based; conditions: for DβH activity, Mean ± SEM, % of control: compound 5 μM; for inhibition of DβH activity (in words): as listed in Table 1, 5 μM; for IC50 against human DβH activity (in words): concentration-dependent decrease in β-hydroxylation of dopamine
T1 construct: endogenous in cells; host or cells: SK-N-SH cells
T1 sequence (P09172 1-617): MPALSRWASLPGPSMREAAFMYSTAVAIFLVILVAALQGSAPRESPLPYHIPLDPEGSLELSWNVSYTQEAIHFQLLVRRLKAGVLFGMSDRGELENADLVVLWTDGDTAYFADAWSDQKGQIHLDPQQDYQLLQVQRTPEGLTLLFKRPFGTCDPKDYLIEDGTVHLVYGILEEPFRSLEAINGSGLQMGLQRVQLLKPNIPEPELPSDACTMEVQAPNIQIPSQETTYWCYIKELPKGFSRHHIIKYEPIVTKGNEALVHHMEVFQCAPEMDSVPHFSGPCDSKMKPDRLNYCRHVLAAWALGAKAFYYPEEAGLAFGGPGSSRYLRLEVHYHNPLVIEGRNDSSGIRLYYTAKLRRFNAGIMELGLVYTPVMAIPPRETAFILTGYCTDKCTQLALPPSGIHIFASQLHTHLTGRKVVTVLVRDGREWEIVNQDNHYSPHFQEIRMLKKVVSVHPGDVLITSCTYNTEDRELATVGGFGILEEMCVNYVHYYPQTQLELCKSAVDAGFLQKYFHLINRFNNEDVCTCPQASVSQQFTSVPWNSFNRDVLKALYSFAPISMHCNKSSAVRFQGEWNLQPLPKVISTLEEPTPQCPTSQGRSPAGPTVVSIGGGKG

DβH [1] = molecular target: T2, DβH (Mus musculus, UniProt Q64237); test: Noradrenaline tissue levels in mouse heart and brain after oral administration; format: in vivo
T2 construct: noradrenaline levels in the mouse left ventricle and brain parietal cortex 9 h after oral administration; from tissue; host or cells: mouse left ventricle and brain parietal cortex (in vivo)
T2 sequence (Q64237 1-622): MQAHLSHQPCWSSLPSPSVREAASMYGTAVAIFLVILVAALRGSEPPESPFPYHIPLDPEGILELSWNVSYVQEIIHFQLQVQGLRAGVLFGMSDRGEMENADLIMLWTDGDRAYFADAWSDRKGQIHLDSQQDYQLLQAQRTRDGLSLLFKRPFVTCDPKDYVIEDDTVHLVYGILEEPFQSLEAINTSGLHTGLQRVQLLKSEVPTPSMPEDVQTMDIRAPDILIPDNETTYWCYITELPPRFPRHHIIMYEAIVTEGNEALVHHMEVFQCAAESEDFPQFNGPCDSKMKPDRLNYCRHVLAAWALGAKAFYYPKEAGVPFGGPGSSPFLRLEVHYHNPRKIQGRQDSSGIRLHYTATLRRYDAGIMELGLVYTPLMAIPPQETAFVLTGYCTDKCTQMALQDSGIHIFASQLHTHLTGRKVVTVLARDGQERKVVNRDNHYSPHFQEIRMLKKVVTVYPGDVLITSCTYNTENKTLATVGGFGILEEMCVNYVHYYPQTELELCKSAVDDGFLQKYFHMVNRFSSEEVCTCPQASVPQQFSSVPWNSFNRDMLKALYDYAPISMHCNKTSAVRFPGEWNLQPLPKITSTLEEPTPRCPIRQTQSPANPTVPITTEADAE
Method: FIG. 1 is a graph showing the time-dependent decrease of noradrenaline levels in the left ventricle of mice treated orally with 100 mg/kg of 4 or nepicastat 1. Symbols are means of 5 determinations per group; vertical lines indicate S.E.M.
FIG. 2 is two graphs showing noradrenaline levels in the mouse left ventricle and brain parietal cortex 9 h after oral administration of 4 or nepicastat 1. Symbols are means of 5 determinations per group; vertical lines indicate S.E.M.
Time of maximum effect (Tmax) for noradrenaline tissue reduction by both 4 and 1 appears to be at 9 h post-dose (FIG. 1). Thereafter, noradrenaline tissue levels recover, reaching 50% recovery of initial tissue levels at 24 h.
For both 4 and 1, the maximal inhibitory effect was attained at a dose of 100 mg/kg.

DβH [2] = molecular target: T3, DβH (Rattus norvegicus, UniProt Q05754); test: Noradrenaline tissue levels in rat heart and brain after oral administration; format: in vivo
T3 construct: noradrenaline levels in the rat heart (left atrium and left ventricle) and brain (frontal and parietal cortex); from tissue; host or cells: rat heart (left atrium, left ventricle) and brain (frontal and parietal cortex), in vivo
T3 sequence (Q05754 1-620): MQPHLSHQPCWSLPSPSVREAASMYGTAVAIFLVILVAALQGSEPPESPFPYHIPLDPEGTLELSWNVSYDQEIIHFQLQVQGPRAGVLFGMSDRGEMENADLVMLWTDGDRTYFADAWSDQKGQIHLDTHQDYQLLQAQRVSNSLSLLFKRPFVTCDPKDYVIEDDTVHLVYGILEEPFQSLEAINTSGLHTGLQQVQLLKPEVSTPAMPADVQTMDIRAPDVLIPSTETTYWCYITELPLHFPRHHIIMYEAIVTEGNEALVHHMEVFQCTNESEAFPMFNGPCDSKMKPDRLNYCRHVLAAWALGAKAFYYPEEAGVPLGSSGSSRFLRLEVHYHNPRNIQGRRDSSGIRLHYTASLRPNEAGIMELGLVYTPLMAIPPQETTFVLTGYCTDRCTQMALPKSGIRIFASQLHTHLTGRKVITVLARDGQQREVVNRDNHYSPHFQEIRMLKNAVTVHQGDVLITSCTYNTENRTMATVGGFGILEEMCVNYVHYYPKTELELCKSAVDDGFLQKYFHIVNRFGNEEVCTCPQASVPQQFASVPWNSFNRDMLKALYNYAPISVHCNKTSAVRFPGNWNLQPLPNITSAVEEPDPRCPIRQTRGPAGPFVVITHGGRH
Method: FIG. 3 is four graphs showing noradrenaline levels in the rat heart (left atrium and left ventricle) and brain (frontal and parietal cortex) 9 h after the oral administration of 4 or nepicastat 1. Columns are means of 5 determinations per group; vertical lines indicated S.E.M.

[3] = mouse, 9 h after oral administration

| DβH activity, Mean ± SEM, % of control (human DβH) | inhibition of DβH activity (in words) (human DβH) | SMILES | also measured |
| --- | --- | --- | --- |
| 99.4 ± 2.8 % of control |  | COc1ccc2c(c1)C[C@@H](n1c(CCN)c[nH]c1=S)CS2.Cl (racemic) [Compound 30, (R,S)-5-(2-aminoethyl)-1-(6-methoxythiochroman-3-yl)-1,3-dihydroimidazole-2-thione hydrochloride] |  |
| 27.3 ± 0.4 % of control |  | Cl.NCCc1c[nH]c(=S)n1[C@H]1CSc2ccc(O)cc2C1 (racemic) [Compound 31, (R,S)-5-(2-aminoethyl)-1-(6-hydroxythiochroman-3-yl)-1,3-dihydroimidazole-2-thione hydrochloride] |  |
|  | markedly inhibit | Cl.NCCc1c[nH]c(=S)n1[C@H]1CCc2c(F)cc(F)cc2C1 [Compound 2, (S)-5-(2-aminoethyl)-1-(5,7-difluoro-1,2,3,4-tetrahydronaphthalen-2-yl)-1,3-dihydroimidazole-2-thione hydrochloride] | IC50 against human DβH activity (in words) (human DβH): low nM range |
|  | markedly inhibit | Cl.NCc1c[nH]c(=S)n1[C@H]1COc2c(F)cc(F)cc2C1 [Compound 3, (R)-5-aminomethyl-1-(6,8-difluorochroman-3-yl)-1,3-dihydroimidazole-2-thione hydrochloride] | IC50 against human DβH activity (in words) (human DβH): low nM range |
|  | markedly inhibit | Cl.NCCc1c[nH]c(=S)n1[C@H]1COc2c(F)cc(F)cc2C1 [Compound 4, (R)-5-(2-aminoethyl)-1-(6,8-difluorochroman-3-yl)-1,3-dihydroimidazole-2-thione hydrochloride] | IC50 against human DβH activity (in words) (human DβH): low nM range; Time of maximum effect (Tmax) for noradrenaline tissue reduction (DβH [1]; mouse heart (left ventricle), 100 mg/kg oral): 9 h; recovery of initial noradrenaline tissue levels (DβH [1]; mouse heart, 100 mg/kg, at 24 h): 50%; duration of action (in words) (DβH [1]; mouse heart, time course at 100 mg/kg): long acting; dose at which maximal inhibitory effect was attained (DβH [1]; mouse left ventricle noradrenaline, 9 h after administration): 100 mg/kg; effect on noradrenaline levels in left ventricle (DβH [1]; [3]): reduced noradrenaline levels in a dose-dependent manner; effect on noradrenaline tissue levels in brain parietal cortex (DβH [1]; [3]): failed to affect; site of DβH inhibition, periphery versus brain (conclusion) (DβH [2]; concluded from mouse and rat studies): exclusively in the periphery, being devoid of inhibitory effects in the brain; dose dependence of effect upon noradrenaline (DβH [2]; rat (data not shown)): dependent on the dose administered; time of maximum effect upon noradrenaline (DβH [2]; rat (data not shown)): 9 h; inhibitory effect upon noradrenaline levels in left atrium and left ventricle (DβH [2]; rat, 100 mg/kg oral, 9 h, compared with 1 (100 mg/kg)): more pronounced than those elicited by 1; effect on noradrenaline tissue levels in brain parietal cortex and brain frontal cortex (DβH [2]; rat, 9 h after oral administration): failed to affect |
|  | markedly inhibit | Cl.NCCCc1c[nH]c(=S)n1[C@H]1CCc2c(F)cc(F)cc2C1 [Compound 5, (S)-5-(3-aminopropyl)-1-(5,7-difluoro-1,2,3,4-tetrahydronaphthalen-2-yl)-1,3-dihydroimidazole-2-thione hydrochloride] |  |
|  | markedly inhibit | Cl.NCCc1c[nH]c(=S)n1[C@H]1COc2c(F)cccc2C1 [Compound 6, (R)-5-(2-aminoethyl)-1-(8-fluorochroman-3-yl)-1,3-dihydroimidazole-2-thione hydrochloride] |  |
| 8.0 ± 0.1 % of control | markedly inhibit | Cl.NCCc1c[nH]c(=S)n1[C@H]1COc2ccc(F)cc2C1 [Compound 7, (R)-5-(2-aminoethyl)-1-(6-fluorochroman-3-yl)-1,3-dihydroimidazole-2-thione hydrochloride] |  |
|  | markedly inhibit | Cl.NCCc1c[nH]c(=S)n1[C@H]1COc2cc(F)c(F)cc2C1 [Compound 8, (R)-5-(2-aminoethyl)-1-(6,7-difluorochroman-3-yl)-1,3-dihydroimidazole-2-thione hydrochloride] |  |
|  | markedly inhibit | Cl.NCCc1c[nH]c(=S)n1[C@H]1COc2c(cc(F)c(F)c2F)C1 [Compound 10, (R)-5-(2-aminoethyl)-1-(6,7,8-trifluorochroman-3-yl)-1,3-dihydroimidazole-2-thione hydrochloride] |  |
| 3.0 ± 0.5 % of control | markedly inhibit | Cl.NCCc1c[nH]c(=S)n1[C@H]1COc2ccccc2C1 [Compound 12, (R)-5-(2-aminoethyl)-1-chroman-3-yl-1,3-dihydroimidazole-2-thione hydrochloride] |  |
| 0.0 ± 0.6 % of control | markedly inhibit | Cl.NCCc1c[nH]c(=S)n1[C@H]1COc2ccc(O)cc2C1 [Compound 16, (R)-5-(2-aminoethyl)-1-(6-hydroxychroman-3-yl)-1,3-dihydroimidazole-2-thione hydrochloride] |  |
|  | markedly inhibit | COc1cccc2c1OC[C@H](n1c(CCN)c[nH]c1=S)C2.Cl [Compound 19, (R)-5-(2-aminoethyl)-1-(8-methoxychroman-3-yl)-1,3-dihydroimidazole-2-thione hydrochloride] |  |
| 0.0 ± 1.9 % of control | markedly inhibit | Cl.NCc1c[nH]c(=S)n1[C@H]1COc2ccccc2C1 [Compound 24, (R)-5-aminomethyl-1-chroman-3-yl-1,3-dihydroimidazole-2-thione hydrochloride] |  |
|  | markedly inhibit | Cl.Oc1ccc2c(c1)C[C@@H](n1c(CCNCc3ccccc3)c[nH]c1=S)CO2 [Compound 26, (R)-5-(2-Benzylaminoethyl)-1-(6-hydroxychroman-3-yl)-1,3-dihydroimidazole-2-thione hydrochloride] |  |
|  | markedly inhibit | CNCCc1c[nH]c(=S)n1[C@H]1COc2c(F)cc(F)cc2C1.Cl [Compound 28, (R)-1-(6,8-Difluorochroman-3-yl)-5-(2-methylaminoethyl)-1,3-dihydroimidazole-2-thione hydrochloride] |  |
|  | markedly inhibit | CNCCc1c[nH]c(=S)n1[C@H]1COc2ccccc2C1.Cl [Compound 29, (R)-1-Chroman-3-yl-5-(2-methylaminoethyl)-1,3-dihydroimidazole-2-thione hydrochloride] |  |
